Counter-ions that a name gives are not always drawn.
Tests used:
[1] = molecular target: δ opioid receptors (Rattus norvegicus, UniProt P33533); assay: Opiate Binding Assay, δ (3[H]-DSLET displacement)
[2] = tested on: CD Charles River mice; assay: Writhing Assay (PBQ-induced writhing); type: in vivo; conditions: mouse; for Writhing Assay, number of mice out of ten in which peptide was active, Intragastric: i.g., 15 min before PBQ; for Writhing Assay, number of mice out of ten in which peptide was active, Intragastric / Writhing Assay, number of mice out of ten in which peptide was active, Subcutaneous: 10 mpk screening dose; for Writhing Assay, number of mice out of ten in which peptide was active, Subcutaneous / Writhing Assay ED50 value, Subcutaneous: s.c.; for Writhing Assay ED50 value, Subcutaneous: 25 min before PBQ i.p.
Text: The "Writhing Assay" is one of the most widely-used experimental procedures for measuring the analgesic activity of different narcotic and nonnarcotic analgesic agents, and involves the continuous, chemically-induced pain of visceral origin to an animal, such as a mouse or rat. [Gyires et al., Arch. int. Pharmacodyn, 267, 131-140 (1984); C. Vander Wende et al., Fed. Proc., 15, 494 (1956); Koster et al., Fed. Proc., 18, 412 (1959); and Witken et al., J. Pharmacol. Exp. Ther., 133, 400-408 (1961).] Chemicals Which may be used to induce this pain include phenylbenzoquinone (PBQ) and acetic acid. As a result of the chemical irritation to the animal, a characteristic stretching and writhing of the animal (dorsiflexion of the animal's back, extension of its hindlimbs and the strong contraction of its abdominal musculature) will generally occur. […] Drugs which reduce the number of writhes of the animal appear to restore the normal nociceptive threshold of the animal.
This assay was conducted generally in the manner described by R. I. Taber, "Predictive Value of Analgesic Assays in Mice and Rats," Advances in Biochemical Psychopharmacology, 8, 191 (1974).
Two hundred CD Charles River mice, weighing 20 to 30 grams were used in this assay.
Twenty-five minutes after subcutaneous administration, and fifteen minutes after intragastric administration, to the mice of 10 mg per kilogram (mpk) of body weight of either a Test Pentapeptide or the Mosberg Pentapeptide, 0.1 ml per 10 g of body weight of a 0.025% w/v solution of PBQ was injected intraperitoneally into each mouse. Some mice were given saline in place of a Test Pentapeptide, or the Mosberg Pentapeptide, and were used as a control group.
Five minutes later, each mouse was individually placed into a glass beaker for observation, and the number of writhes occurring during the following ten-minute period was counted.
A pentapeptide compound was considered to be "active" (to have produced analgesia in a mouse) if, after the administration of 10 mg per kilogram (mpk) of body weight of the compound to the mouse, the number of writhes elicited by a mouse injected with PBQ was equal to, or less than, one-half the median number of writhes recorded for the saline-treated control group of mice that day, as described by R. I. Taber, supra.
The standard initial screening dose of a test compound employed in this assay was 10 mpk […] for both routes of administration. […] A maximum likelihood function was used to determine the ED50 value. (The slopes of the dose-response curves for all test compounds analyzed were compared as described by Tallarida and Murray, Manual of Pharmacologic Calculations, Page 11 (Springer Verlag, New York, 1981)).

[3] = molecular target: μ opioid receptors (Rattus norvegicus, UniProt P33535); assay: Opiate Binding Assay, μ (3[H]-DAMPGO displacement)
Sequence of μ opioid receptors (P33535 whole entry): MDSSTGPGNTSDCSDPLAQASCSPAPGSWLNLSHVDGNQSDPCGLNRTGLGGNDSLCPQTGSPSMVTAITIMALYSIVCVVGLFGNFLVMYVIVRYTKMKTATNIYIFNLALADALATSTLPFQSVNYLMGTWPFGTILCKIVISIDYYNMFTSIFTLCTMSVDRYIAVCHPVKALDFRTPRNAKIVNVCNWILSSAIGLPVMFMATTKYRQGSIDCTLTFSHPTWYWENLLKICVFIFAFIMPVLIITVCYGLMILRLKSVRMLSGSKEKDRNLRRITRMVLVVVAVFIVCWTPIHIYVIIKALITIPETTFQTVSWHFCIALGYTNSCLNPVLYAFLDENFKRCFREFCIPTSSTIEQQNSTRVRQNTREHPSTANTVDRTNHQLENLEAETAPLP

[4] = tested on: Charles River albino mice; assay: Tail Flick Assay (mouse); type: in vivo; conditions: for Tail Flick Assay activity, Subcutaneous: s.c.
Text: (§1) The "Tail Flick Assay" and the "Hot Plate Assay" (also known as the "Hind Paw Lick Assay") use thermal pain of transient duration, and are tests in which the pain threshold of the mice or rats being analyzed has not been altered. They are useful for evaluating the ability of a compound or drug to increase the animal's pain threshold (i.e. prolong response latencies), rather than to restore normal thresholds.
(§2) The heat-induced response to the Tail Flick Assay is a reflex reaction mediated at the level of the spinal cord. The heat-induced response to the Hot Plate Assay, however, is a more complex behavior requiring integration at higher centers in the brain.
The Tail Flick Assay and the Hot Plate Assay were performed generally in the manner described by G. Woolfe et al., "The Evaluation of the Analgesic Action of Pethidine Hydrochloride (Demerol)," J. Pharmacol. Exp. Ther., 80, 300, (1944), F. D'Amour et al., "A Method for Determining Loss of Pain Sensation," J. PharmacoI. Exp. Ther., 72, 74, 300-307 (1941), and E. Drower et al., "The Antinociceptive Effects of Prostaglandin Antagonists in the Rat," European Journal of Pharmacology, 133, 249-256 (1987).
Male Charles River albino mice and male Charles River Sprague-Dawley rats weighing 20 to 30 g, and 200 to 250 g, respectively, were employed in these assays.
(§3) Tail flick response latencies (defined as the time that elapsed between the onset of a high intensity beam of light and the reflex removal of the mouse or rat's tail) and hot plate response latencies (defined as the time that elapsed between the placement of a mouse or rat on a 55 degrees Celsius surface and a lick of the hind paw) were separately, but consecutively, measured before (baseline) and again at fixed intervals after subcutaneous or intracerebroventricular administration of one of the pentapeptide compounds of the invention, the Mosberg Pentapeptide, or after the administration of saline (controls). The cut-off latencies established to prevent tissue damage in the animals are 12 seconds or 14 seconds in the mouse and rat, respectively, in the Tail Flick Assay, and 40 seconds for both species in the Hot Plate Assay. The significance of any increase in tail flick response latency or hot plate response latency is determined using analyses of variance.
One way analyses of variance were used to determine the significance of the effect of the pentapeptides on response latencies. […]
(§4) "Activity" or "Inactivity" was determined at a particular concentration of the peptide by a significant increase in tail flick or hot plate latencies above normal latencies.
(§5) The data resulting from the Tail Flick Assay and the Hot Plate Assay are presented in Tables II and III below, respectively. The numbers in parentheses are calculated ED50 values.

[5] = tested on: Charles River albino mice; assay: Hot Plate Assay (mouse); type: in vivo
Text: as §1, §2
The Tail Flick Assay and the Hot Plate Assay were performed generally in the manner described by G. Woolfe et al., "The Evaluation of the Analgesic Action of Pethidine Hydrochloride (Demerol)," J. Pharmacol. Exp. Ther., 80, 300, (1944), F. D'Amour et al., "A Method for Determining Loss of Pain Sensation," J. PharmacoI. […]
as §3, with “The cut-off latencies established to prevent tissue damage in the animals are 12 seconds or 14 seconds in the mouse and rat, respectively, in the Tail Flick Assay, and 40 seconds for both species in the Hot Plate Assay.” left out, “variance. […]” for “variance.”
as §4, §5

[6] = tested on: Charles River Sprague-Dawley rats; assay: Tail Flick Assay (rat); type: in vivo; conditions: s.c., at 30 mpk
Text: as §1
The heat-induced response to the Tail Flick Assay is a reflex reaction mediated at the level of the spinal cord. The heat-induced response to the Hot Plate Assay, however, is a more complex behavior requiring integration at higher centers in the brain. […]
Tail flick response latencies (defined as the time that elapsed between the onset of a high intensity beam of light and the reflex removal of the mouse or rat's tail) and hot plate response latencies (defined as the time that elapsed between the placement of a mouse or rat on a 55 degrees Celsius surface and a lick of the hind paw) were separately, but consecutively, measured before (baseline) and again at fixed intervals after subcutaneous or intracerebroventricular administration of one of the pentapeptide compounds of the invention, the Mosberg Pentapeptide, or after the administration of saline (controls). […]

[7] = i.c.v., dose giving half the maximum possible increase in latency

Sequence of δ opioid receptors (P33533 whole entry): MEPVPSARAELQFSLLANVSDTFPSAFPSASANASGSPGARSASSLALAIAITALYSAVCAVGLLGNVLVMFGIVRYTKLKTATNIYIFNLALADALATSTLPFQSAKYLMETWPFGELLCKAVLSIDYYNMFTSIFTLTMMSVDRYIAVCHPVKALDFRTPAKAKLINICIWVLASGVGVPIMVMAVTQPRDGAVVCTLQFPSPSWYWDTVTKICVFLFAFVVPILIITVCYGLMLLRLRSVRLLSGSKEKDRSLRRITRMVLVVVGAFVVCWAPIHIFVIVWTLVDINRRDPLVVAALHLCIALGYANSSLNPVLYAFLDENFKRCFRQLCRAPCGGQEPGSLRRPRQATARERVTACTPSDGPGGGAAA

## Cc1cc(O)cc(C)c1C[C@H](N)C(=O)N[C@H]1C(=O)NCC(=O)N[C@@H](CC2CCCCC2)C(=O)N[C@@H](C(N)=O)C(C)(C)SSC1(C)C [Example 24, 2,6-dimethyl-L-tyrosyl-3-mercapto-D-valylglycyl-3-cyclohexyl-L-alanyl-3-mercapto-D-valinamide, cyclic (2→5)-disulfide]
[1]; ratio of mean IC50 values for μ and δ opioid receptors, above 1.0 = δ specific
  Mean IC50 μ/δ Ratio: 1.6
[2]
  Writhing Assay, number of mice out of ten in which peptide was active, Intragastric: 2/10
  Writhing Assay, number of mice out of ten in which peptide was active, Subcutaneous: 2/10

## Cc1ccc(CC(N)C(=O)N[C@H]2C(=O)NCC(=O)N[C@@H](Cc3ccccc3)C(=O)N[C@@H](C(=O)O)C(C)(C)SSC2(C)C)c(C)c1O (single isomer, unassigned) [Example 21 (Diastereomer B), 3-hydroxy-2,4-dimethyl-L-phenylalanyl-3-mercapto-D-valyglycyl-L-phenylalanyl-3-mercapto-D-valine, cyclic (2→5)-disulfide]
[1]
  IC50: 0.151 µM

## Cc1cc(O)cc(C)c1C[C@H](N)C(=O)N[C@H]1C(=O)NCC(=O)N[C@@H](Cc2ccc(F)cc2)C(=O)N[C@@H](C(N)=O)C(C)(C)SSC1(C)C [Example 23, 2,6-dimethyl-L-tyrosyl-3-mercapto-D-valylglycyl-4-fluoro-L-phenylalanyl-3-mercapto-D-valinamide, cyclic (2→5)-disulfide]
[2]; from Table I
  rank order of potency in the Writhing Assay: most potent compound of the invention tested
[2]
  Writhing Assay, number of mice out of ten in which peptide was active, Intragastric: 4/10
  Writhing Assay ED50 value, Subcutaneous: 1.9 mpk

## Cc1cc(O)c(C)c(C)c1CC(N)C(=O)N[C@H]1C(=O)NCC(=O)N[C@@H](Cc2ccccc2)C(=O)N[C@@H](C(=O)O)C(C)(C)SSC1(C)C (single isomer, unassigned) [Example 20 (Diastereomer A), 2,3,6-trimethyl-L-tyrosyl-3-mercapto-D-valylglycyl-L-phenylalanyl-3-mercapto-D-valine, cyclic (2→5) disulfide]
[3]
  IC50: 24 µM
[1]
  IC50: 0.024 µM

## Cc1cc(O)cc(C)c1C[C@H](N)C(=O)N[C@H]1C(=O)NCC(=O)N[C@@H](Cc2ccccc2)C(=O)N[C@@H](C(=O)O)C(C)(C)SSC1(C)C [Example 4, 2,6-dimethyl-L-tyrosyl-3-mercapto-D-valylglycyl-L-phenylalanyl-3-mercapto-D-valine, cyclic (2→5)-disulfide]
[4]; [7]
  Tail Flick Assay calculated ED50 value, Intracerebroventricular: 0.28 µg
[4]; at 33 mpk
  Tail Flick Assay activity, Subcutaneous: Active
[5]; [7]
  Hot Plate Assay calculated ED50 value, Intracerebroventricular: 0.20 µg
[2]
  Writhing Assay, number of mice out of ten in which peptide was active, Intragastric: 3/10
  Writhing Assay ED50 value, Subcutaneous: 2.6 mpk
[6]
  Tail Flick Assay activity, Subcutaneous: Active

## Cc1cc(O)cc(C)c1C[C@H](N)C(=O)N[C@H]1C(=O)NCC(=O)N[C@@H](Cc2ccc(Cl)cc2)C(=O)N[C@@H](C(=O)OCc2ccccc2)C(C)(C)SSC1(C)C [Example 41, 2,6-dimethyl-L-tyrosyl-3-mercapto-D-valylglycyl-4-chloro-L-phenylalanyl-3-mercapto-D-valine, cyclic (2→5)-disulfide, phenylmethyl ester, monohydrochloride]
[2]
  Writhing Assay, number of mice out of ten in which peptide was active, Intragastric: 4/10
  Writhing Assay, number of mice out of ten in which peptide was active, Subcutaneous: 3/10

## COC(=O)[C@@H]1NC(=O)[C@H](Cc2ccccc2)NC(=O)CNC(=O)[C@H](NC(=O)[C@@H](N)Cc2c(C)cc(O)cc2C)C(C)(C)SSC1(C)C [Example 16, -dimethyl-L-tyrosyl-3-mercapto-D-valylglycyl-L-phenylalanyl-3-mercapto-D-valine, cyclic (2→5)-disulfide, methyl ester]
[4]; i.c.v., at 10 μg
  Tail Flick Assay activity, Intracerebroventricular: Active
[4]; at 30 mpk
  Tail Flick Assay activity, Subcutaneous: Active
[5]; i.c.v., at 10 μg
  Hot Plate Assay activity, Intracerebroventricular: Active
[5]; s.c., at 30 mpk
  Hot Plate Assay activity, Subcutaneous: Active
[2]
  Writhing Assay, number of mice out of ten in which peptide was active, Intragastric: 3/10
  Writhing Assay ED50 value, Subcutaneous: 2.1 mpk
